Read-outs that look alike come from different tables or passages of the source.
Legend:
rats = experiment: Genetic toxicity in vivo (rats); set-up: species or system rat; conditions: in vivo OECD TG 478 overriding in vitro OECD TG 473
Wistar rats [1] = experiment: Reproductive toxicity screening combined with 28-day repeated dose toxicity study (OECD TG 422); type: in vivo, rat; conditions: for NOAEL, reproductive toxicity: OECD 422 v 2016, oral gavage
From the text: Healthy and specific pathogen-free male and female (non-pregnant and nulliparous) Wistar Crl: WI(Han) rats were obtained from Charles River Laboratories (Germany). […] Upon arrival at BSL BIOSERVICE, the animals underwent an acclimatisation period of at least 5 days, and they were approximately 15–16 weeks old at the onset of the treatment period.

Wistar rats [2] = experiment: Higher-tier studies taken together (OECD TG 408, 414, 421/422, 443): NOAEL; conditions: over all higher-tier studies
Description: All in vivo studies were conducted as oral gavage studies, selecting the oral route as most appropriate route of administration to reflect the worst-case exposure scenario. […] The OECD TG 443 included mating of first generation (F1) offspring to produce a second generation (F2), and the DIT and DNT cohorts.

oestrogen receptors = system: oestrogen receptors; set-up: method as in Byford et al. 2002; conditions: ref Byford et al. 2002; cited from earlier work
Wistar rats [3] = conditions: ref Food and Drug Research Laboratories 1972, cited from earlier work; for NOAEL, developmental toxicity: similar to OECD 414, conducted 1972, highest dose tested, GD 6–15

COC(=O)c1ccc(O)cc1 [Methyl paraben, Methyl 4-hydroxybenzoate]
Overall WoE conclusion on genotoxicity (rats): [d] While methyl paraben exhibited in vitro clastogenicity with metabolic activation in an OECD TG 473 study, absence of in vivo clastogenicity in an OECD TG 478 study is overriding in the WoE evaluation so that the overall WoE conclusion is absence of genotoxicity | NOAEL, reproductive toxicity (Wistar rats [1]): NOAEL: 1000 (OECD 422; v 2016) mg/kg body weight/day | NOAEL, reproductive toxicity (Wistar rats [1]; listed as methyl paraben): 1000 mg/kg body weight/day | Treatment-related effects in parental animals or pups (Wistar rats [1]; OECD TG 422): no treatment-related effects | Adrenals HP (Wistar rats [1]; P0, F1): NAE / NAE | Adrenals weight (Wistar rats [1]; P0, F1): NAE / NAE | Brain weight (Wistar rats [1]; P0, F1): NAE / NAE | Coagulating gland HP (Wistar rats [1]; P0, F1): NAE / NAE | Epididymis HP (Wistar rats [1]; P0, F1): NAE / NAE | Epididymis weight (Wistar rats [1]; P0, F1): NAE / NAE | Fertility (Wistar rats [1]; P0, F1): NAE / NAE | Foetal development (Wistar rats [1]; P0, F1): NAE / NAE | Gestation length (Wistar rats [1]; P0, F1): NAE / NAE | Litter size (Wistar rats [1]; P0, F1): NAE / NAE | Litter viability (Wistar rats [1]; P0, F1): NAE / NAE | Liver weight (Wistar rats [1]; P0, F1): NAE / NAE | Mammary gland HP; males (Wistar rats [1]; P0, F1): NAE / NAE | Nipple development (Wistar rats [1]; P0, F1): NAE / NAE | No. of implantations, corpora lutea (Wistar rats [1]; P0, F1): NAE / NAE | No. of live births (Wistar rats [1]; P0, F1): NAE / NAE | Oestrus cyclicity (Wistar rats [1]; P0, F1): NAE / NAE | Ovary HP (Wistar rats [1]; P0, F1): NAE / NAE | Ovary weight (Wistar rats [1]; P0, F1): NAE / NAE | Postimplantation loss (Wistar rats [1]; P0, F1): NAE / NAE | Pre-implantation loss (Wistar rats [1]; P0, F1): NAE / NAE | Presence of anomalies (external, visceral, skeletal) (Wistar rats [1]; P0, F1): NAE / NAE | Prostate HP (Wistar rats [1]; P0, F1): NAE / NAE | Prostate weight (Wistar rats [1]; P0, F1): NAE / NAE | Reproduction (Wistar rats [1]; P0, F1): NAE / NAE | Seminal vesicles HP (Wistar rats [1]; P0, F1): NAE / NAE | Seminal vesicles weight (Wistar rats [1]; P0, F1): NAE / NAE | Testis HP (Wistar rats [1]; P0, F1): NAE / NAE | Testis weight (Wistar rats [1]; P0, F1): NAE / NAE | Thyroid stimulating hormone level (Wistar rats [1]; P0, F1): NAE / NAE | Time to mating (Wistar rats [1]; P0, F1): NAE / NAE | Triiodothyronine / thyroxine level (Wistar rats [1]; P0, F1): NAE / NAE | Uterus HP (with cervix) (Wistar rats [1]; P0, F1): NAE / NAE | Uterus weight (with cervix) (Wistar rats [1]; P0, F1): NAE / NAE | Vagina HP (Wistar rats [1]; P0, F1): NAE / NAE | Vaginal smears (Wistar rats [1]; P0, F1): NAE / NAE | NOAEL: Accessory sex organs HP (Wistar rats [2]): 1000 / 1000 mg/kg bw/day | NOAEL: Adrenals HP (Wistar rats [2]): 1000 / 1000 mg/kg bw/day | NOAEL: Adrenals weight (Wistar rats [2]): 1000 / 1000 mg/kg bw/day | NOAEL: Age at balano-preputial separation (Wistar rats [2]): 1000 / 1000 mg/kg bw/day | NOAEL: Age at vaginal opening (Wistar rats [2]): 1000 / 1000 mg/kg bw/day | NOAEL: Anogenital distance (Wistar rats [2]): 1000 / 1000 mg/kg bw/day | NOAEL: Auditory startle (Wistar rats [2]): 1000 / 1000 mg/kg bw/day | NOAEL: Brain HP (Wistar rats [2]): 1000 / 1000 mg/kg bw/day | NOAEL: Brain morphometric evaluation (Wistar rats [2]): 1000 / 1000 mg/kg bw/day | NOAEL: Brain weight (Wistar rats [2]): 1000 / 1000 mg/kg bw/day | NOAEL: Cervix HP (Wistar rats [2]): 1000 / 1000 mg/kg bw/day | NOAEL: Coagulating gland HP (Wistar rats [2]): 1000 / 1000 mg/kg bw/day | NOAEL: Coagulating gland weight (Wistar rats [2]): 1000 / 1000 mg/kg bw/day | NOAEL: Colloid area (thyroid HP) (Wistar rats [2]): 1000 / 1000 mg/kg bw/day | NOAEL: Dystocia (Wistar rats [2]): 1000 / 1000 mg/kg bw/day | NOAEL: Epididymis HP (Wistar rats [2]): 1000 / 1000 mg/kg bw/day | NOAEL: Epididymis weight (Wistar rats [2]): 1000 / 1000 mg/kg bw/day | NOAEL: Fertility (Wistar rats [2]): 1000 / 1000 mg/kg bw/day | NOAEL: Foetal development (Wistar rats [2]): 1000 / 1000 mg/kg bw/day | NOAEL: Functional observation battery (Wistar rats [2]): 1000 / 1000 mg/kg bw/day | NOAEL: Genital abnormalities (Wistar rats [2]): 1000 / 1000 mg/kg bw/day | NOAEL: Gestation length (Wistar rats [2]): 1000 / 1000 mg/kg bw/day | NOAEL: Litter / pup weight (Wistar rats [2]): 1000 / 1000 mg/kg bw/day | NOAEL: Litter size (Wistar rats [2]): 1000 / 1000 mg/kg bw/day | NOAEL: Litter viability (Wistar rats [2]): 1000 / 1000 mg/kg bw/day | NOAEL: Liver weight (Wistar rats [2]): 1000 / 1000 mg/kg bw/day | NOAEL: Mammary gland HP; females (Wistar rats [2]): 1000 / 1000 mg/kg bw/day | NOAEL: Mammary gland HP; males (Wistar rats [2]): 1000 / 1000 mg/kg bw/day | NOAEL: Motor activity (Wistar rats [2]): 1000 / 1000 mg/kg bw/day | NOAEL: Nipple development (Wistar rats [2]): 1000 / 1000 mg/kg bw/day | NOAEL: No. of implantations, corpora lutea (Wistar rats [2]): 1000 / 1000 mg/kg bw/day | NOAEL: No. of live births (Wistar rats [2]): 1000 / 1000 mg/kg bw/day | NOAEL: No. of ovarian follicles (Wistar rats [2]): 1000 / 1000 mg/kg bw/day | NOAEL: Oestrus cyclicity (Wistar rats [2]): 1000 / 1000 mg/kg bw/day | NOAEL: Offspring: learning & memory (Wistar rats [2]): 1000 / 1000 mg/kg bw/day | NOAEL: Ovary HP (Wistar rats [2]): 1000 / 1000 mg/kg bw/day | NOAEL: Ovary weight (Wistar rats [2]): 1000 / 1000 mg/kg bw/day | NOAEL: Oviduct HP (Wistar rats [2]): 1000 / 1000 mg/kg bw/day | NOAEL: Pituitary HP (Wistar rats [2]): 1000 / 1000 mg/kg bw/day | NOAEL: Pituitary weight (Wistar rats [2]): 1000 / 1000 mg/kg bw/day | NOAEL: Postimplantation loss (Wistar rats [2]): 1000 / 1000 mg/kg bw/day | NOAEL: Pre-implantation loss (Wistar rats [2]): 1000 / 1000 mg/kg bw/day | NOAEL: Presence of anomalies (Wistar rats [2]): 1000 / 1000 mg/kg bw/day | NOAEL: Prostate HP (Wistar rats [2]): 1000 / 1000 mg/kg bw/day | NOAEL: Prostate weight (Wistar rats [2]): 1000 / 1000 mg/kg bw/day | NOAEL: Pup development (Wistar rats [2]): 1000 / 1000 mg/kg bw/day | NOAEL: Reproduction (Wistar rats [2]): 1000 / 1000 mg/kg bw/day | NOAEL: Seminal vesicles HP (Wistar rats [2]): 1000 / 1000 mg/kg bw/day | NOAEL: Seminal vesicles weight (Wistar rats [2]): 1000 / 1000 mg/kg bw/day | NOAEL: Testis HP (Wistar rats [2]): 1000 / 1000 mg/kg bw/day | NOAEL: Testis weight (Wistar rats [2]): 1000 / 1000 mg/kg bw/day | NOAEL: Thyroid HP (Wistar rats [2]): 1000 / 1000 mg/kg bw/day | NOAEL: Thyroid stimulating hormone level (Wistar rats [2]): 1000 / 1000 mg/kg bw/day | NOAEL: Thyroid weight (Wistar rats [2]): 1000 / 1000 mg/kg bw/day | NOAEL: Time to mating (Wistar rats [2]): 1000 / 1000 mg/kg bw/day | NOAEL: Triiodothyronine / thyroxine level (Wistar rats [2]): 1000 / 1000 mg/kg bw/day | NOAEL: Uterus HP (with cervix) (Wistar rats [2]): 1000 / 1000 mg/kg bw/day | NOAEL: Uterus weight (with cervix) (Wistar rats [2]): 1000 / 1000 mg/kg bw/day | NOAEL: Vagina HP (Wistar rats [2]): 1000 / 1000 mg/kg bw/day | NOAEL: Vaginal smears (Wistar rats [2]): 1000 / 1000 mg/kg bw/day | Rank of oestrogen receptor activation among shorter-chained parabens (oestrogen receptors): the least | NOAEL: No. of foetal deaths; viable foetuses (Wistar rats [3]; TG 414-like, highest dose): 550 mg/kg bw/day | No. of foetal deaths; viable foetuses (Wistar rats [3]; TG 414-like, up to 550 mg/kg bw/day): NAE / NAE | Triiodothyronine / thyroxine level (Wistar rats [3]; dams, TG 414-like, up to 550 mg/kg bw/day): NAE / NAE (dams) | NOAEL, developmental toxicity (Wistar rats [3]): NOAEL: 550 (highest dose tested) (similar to OECD 414; conducted 1972) mg/kg body weight/day | NOAEL, developmental toxicity (Wistar rats [3]; listed as methyl paraben): 550 mg/kg body weight/day
